From patent US12252490B2, “Inhibiting deubiquitinase USP25 and USP28” (Valo Health, Inc., priority 2018, dated 2025)

These compounds were tested against T1, USP28 (His-tagged USP28-FL-mammalian) (Homo sapiens, UniProt Q96RU2) (assay: Ubiquitin-Rhodamine 110 Assay for USP28 Activity, Example A-1(a)). Settings: USP28, 75 pM enzyme, 25 nM Ub-Rh110, 1536-well, 30 min preincubation; read-out: Assay A-1(a) (IC50 range).
T1 construct: Expression of USP28 (1-1077)-TEV-6*His (pTT5 vector) was carried out in Expi293f cells; made in house; host or cells: Expi293f cells (pTT5 vector)
T1 sequence (Q96RU2 1-1077): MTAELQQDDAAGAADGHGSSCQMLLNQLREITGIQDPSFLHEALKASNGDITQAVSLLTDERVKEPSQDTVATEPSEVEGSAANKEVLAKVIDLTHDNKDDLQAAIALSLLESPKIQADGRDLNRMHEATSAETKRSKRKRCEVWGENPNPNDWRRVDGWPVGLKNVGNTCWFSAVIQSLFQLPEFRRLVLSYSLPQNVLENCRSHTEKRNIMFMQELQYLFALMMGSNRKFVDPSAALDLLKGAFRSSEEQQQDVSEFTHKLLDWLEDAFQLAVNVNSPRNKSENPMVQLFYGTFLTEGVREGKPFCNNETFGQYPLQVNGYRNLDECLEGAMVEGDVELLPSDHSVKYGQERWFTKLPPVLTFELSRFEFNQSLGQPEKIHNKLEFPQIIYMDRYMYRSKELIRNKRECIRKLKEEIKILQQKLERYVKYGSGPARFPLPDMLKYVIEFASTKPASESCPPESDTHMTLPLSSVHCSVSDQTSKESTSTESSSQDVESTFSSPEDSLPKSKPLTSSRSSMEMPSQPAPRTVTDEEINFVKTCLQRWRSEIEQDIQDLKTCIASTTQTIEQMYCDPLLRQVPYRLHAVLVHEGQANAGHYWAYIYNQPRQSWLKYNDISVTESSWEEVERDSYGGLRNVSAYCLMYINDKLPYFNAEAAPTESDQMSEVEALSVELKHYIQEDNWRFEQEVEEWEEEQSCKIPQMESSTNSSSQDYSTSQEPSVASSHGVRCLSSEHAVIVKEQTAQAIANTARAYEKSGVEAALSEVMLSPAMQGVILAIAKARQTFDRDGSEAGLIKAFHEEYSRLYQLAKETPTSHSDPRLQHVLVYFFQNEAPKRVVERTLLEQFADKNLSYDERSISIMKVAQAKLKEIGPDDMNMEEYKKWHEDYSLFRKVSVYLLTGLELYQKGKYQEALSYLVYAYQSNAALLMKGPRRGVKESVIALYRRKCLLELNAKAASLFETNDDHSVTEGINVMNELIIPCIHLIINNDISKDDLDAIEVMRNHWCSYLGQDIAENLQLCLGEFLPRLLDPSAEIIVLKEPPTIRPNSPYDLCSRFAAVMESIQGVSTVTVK
Type: biochemical
Experimental: The assay was performed in a final volume of 9 μL in assay buffer containing 20 mM Tris-HCl (pH 8.0, (1M Tris-HCl, pH 8.0 solution; Corning 46-031-CM)), 3 mM BME (2-Mercaptoethanol; Sigma 63689-25ML-F), 0.03% BGG (0.22 μM filtered, Sigma, G7516-25G), and 0.01% Triton X-100 (Sigma, T9284-10L). Nanoliter quantities of 10-point, 3-fold serial dilution in DMSO was pre-dispensed into 1536 assay plates (Corning, #3724BC) for a final test concentration of 25 μM to 1.3 nM, top to lowest dose, respectively. Enzyme USP28, construct His-tagged USP28-FL-mammalian, (protein expression and purification procedure described below). Concentration and incubation times were optimized for the maximal signal-to-background while maintaining initial velocity conditions at a fixed substrate concentration. The final concentration of the enzyme in the assay was 75 pM. Final substrate (Ub-Rh110; Ubiquitin-Rhodamine 110, UbiQ-126) concentration was 25 nM with [Ub-Rh110]<<Km. 3 μL of 2× enzyme was added to assay plates (pre-stamped with compound) preincubated with […] for 30 minutes and then 3 μL of 2×Ub-Rh110 was added to assay plates. Plates were incubated for 45 minutes at room temperature before addition of 3 μL of stop solution (final concentration of 10 mM citric acid (Sigma, 251275-500G)). Fluorescence was read on the Envision (Excitation at 485 nm and Emission at 535 nm; Perkin Elmer) or on the PheraSTAR (Excitation at 485 nm and Emission at 535 nm; BMG Labtech).
Expression of USP28 (1-1077)-TEV-6*His (pTT5 vector) was carried out in Expi293f cells (sequence derived from uniprot ID: Q96RU2-1). Cells were re-suspended in lysis buffer B 50 mM Bicine, pH 8.0, 20 mM NaCl, 5% glycerol, 0.1% CHAPS, 5 mM β-ME, 1 mM PMSF, 1 μg/ml Leupeptin, 1 μg/ml Pepstatin) and lysed by sonication. Insoluble material was removed by centrifugation and the supernatant was loaded onto a Ni-NTA column (GE Healthcare) equilibrated with Ni Buffer A (50 mM Bicine, pH 8.0, 20 mM NaCl, 5% glycerol, 0.1% CHAPS, 5 mM β-ME.) and washed with Ni Buffer A+20 mM imidazole until A280 reached baseline. The protein was eluted with Ni Buffer B (50 mM Bicine, pH 8.0, 20 mM NaCl, 5% glycerol, 0.1% CHAPS, 5 mM β-ME, 300 mM imidazole.). The protein was further purified using a Superdex™ 200 10/300 GL column (GE Healthcare) equilibrated with 50 mM Bicine, pH 8.0, 20 mM NaCl, 5% glycerol, 0.1% CHAPS, 5 mM β-ME. The protein was concentrated to 2.5 mg ml^−1, flash-frozen in liquid N2 and stored at −80° C.
For assay formats Examples A-1a, A-1b, and A-2, data were reported as percent inhibition compared with control wells based on the following equation: % inh=1−((FLU−AveLow)/(AveHigh−AveLow)) where FLU=measured Fluorescence, AveLow=average Fluorescence of no enzyme control (n=16), and AveHigh=average Fluorescence of DMSO control (n=16). IC50 values were determined by curve fitting of the standard 4 parameter logistic fitting algorithm included in the Activity Base software package: IDBS XE Designer Model205. Data is fitted using the Levenburg Marquardt algorithm.
Compound `CCn1ccc2cc(C(=O)NC[C@@H](C)c3cc(F)c(N4CCNCC4)cc3F)cnc21` (single isomer, unassigned) [Example 2-1] has an IC50 of 50 to 200 nM. `CCn1ccc2cc(C(=O)NC[C@H](C)c3cc(F)c(N4CCNCC4)cc3F)cnc21` (single isomer, unassigned) [Example 2-2] gave an IC50 of 200 to 2000 nM. `CCn1ccc2cc(C(=O)NC[C@H](C)c3cc(F)c(N4CC5CCC(C4)N5)cc3F)cnc21` (single isomer, unassigned) [Example 2-3] gave an IC50 of 1 to 50 nM. Compound `CCn1ccc2cc(C(=O)NC[C@@H](C)c3cc(F)c(N4CC5CCC(C4)N5)cc3F)cnc21` (single isomer, unassigned) [Example 2-4] has an IC50 of 50 to 200 nM. For `CCn1ccc2cc(C(=O)NC[C@H](C)c3cc(F)c(N4CC5CCC(C4)N5)cc3F)nnc21` (single isomer, unassigned) [Example 4-2], the IC50 was 50 to 200 nM. For `CCn1ccc2cc(C(=O)NC[C@@H](C)c3cc(F)c(N4CC5CCC(C4)N5)cc3F)nnc21` (single isomer, unassigned) [Example 4-3], the IC50 was 50 to 200 nM. Work on `CCn1ccc2cc(C(=O)NCCc3cc(F)c(N4CC5CCC(C4)N5)cc3F)cnc21` [Example 1-1, N-[2-(4-[3,8-diazabicyclo[3.2.1]octan-3-yl]-2,5-difluorophenyl)ethyl]-1-ethyl-1H-pyrrolo[2,3-b]pyridine-5-carboxamide] yielded an IC50 of 1 to 50 nM. For `O=C(NCCc1ccc(N2CCNCC2)cc1)c1cnc2[nH]ccc2c1` [Example 1-2, N-(4-(piperazin-1-yl)phenethyl)-1H-pyrrolo[2,3-b]pyridine-5-carboxamide], the IC50 was 200 to 2000 nM. `Cn1ccc2cc(C(=O)NCCc3ccc(N4CCNCC4)cc3)cnc21` [Example 1-3, 1-methyl-N-(4-(piperazin-1-yl)phenethyl)-1H-pyrrolo[2,3-b]pyridine-5-carboxamide] showed an IC50 of 200 to 2000 nM. Compound `CCn1ccc2cc(C(=O)NCCc3ccc(N4CCNCC4)cc3)cnc21` [Example 1-4, 1-ethyl-N-(4-(piperazin-1-yl)phenethyl)-1H-pyrrolo[2,3-b]pyridine-5-carboxamide] has an IC50 of 1 to 50 nM. `Nc1c(C(=O)NCCc2ccc(N3CCNCC3)cc2)cnc2[nH]ccc12` [Example 1-5, 4-amino-N-(4-(piperazin-1-yl)phenethyl)-1H-pyrrolo[2,3-b]pyridine-5-carboxamide] was tested, and the IC50 was 200 to 2000 nM. `CCn1ccc2cc(C(=O)NCCc3ccc(N4CC5CCC(C4)N5)cc3)cnc21` [Example 1-6, N-(4-(3,8-diazabicyclo[3.2.1]octan-3-yl)phenethyl)-1-ethyl-1H-pyrrolo[2,3-b]pyridine-5-carboxamide] was tested, and the IC50 was 1 to 50 nM. `CCn1ccc2cc(C(=O)NCCc3cc(F)c(N4CCNCC4)cc3F)cnc21` [Example 1-7, N-(2,5-difluoro-4-(piperazin-1-yl)phenethyl)-1-ethyl-1H-pyrrolo[2,3-b]pyridine-5-carboxamide] showed an IC50 of 1 to 50 nM. In the case of `O=C(NCCc1ccc(N2CCNCC2)cc1)c1cnc2c(ccn2CC(F)(F)F)c1` [Example 1-8], the IC50 is reported as 1 to 50 nM. Compound `CC(C)(O)Cn1ccc2cc(C(=O)NCCc3cc(F)c(N4CC5CCC(C4)N5)cc3F)cnc21` [Example 1-9, N-(4-(3,8-diazabicyclo[3.2.1]octan-3-yl)-2,5-difluorophenethyl)-1-(2-hydroxy-2-methylpropyl)-1H-pyrrolo[2,3-b]pyridine-5-carboxamide] has an IC50 of 2000 to 10000 nM. With `CCn1ccc2cc(C(=O)NCCc3ccc(N4CC5CCC(C4)N5)c(F)c3)cnc21` [Example 1-10, N-(4-(3,8-diazabicyclo[3.2.1]octan-3-yl)-3-fluorophenethyl)-1-ethyl-1H-pyrrolo[2,3-b]pyridine-5-carboxamide] the IC50 was 1 to 50 nM. For `CCn1cc(Cl)c2cc(C(=O)NCCc3ccc(N4CCNCC4)cc3)cnc21` [Example 3-1, 3-Chloro-1-ethyl-N-[2-[4-(piperazin-1-yl)phenyl]ethyl]-1H-pyrrolo[2,3-b]pyridine-5-carboxamide], the IC50 was 1 to 50 nM. `O=C(NCCc1ccc(N2CCNCC2)cc1)c1cnc2[nH]cc(Cl)c2c1` [Example 3-2, 3-chloro-N-(4-(piperazin-1-yl)phenethyl)-1H-pyrrolo[2,3-b]pyridine-5-carboxamide] gave an IC50 of 200 to 2000 nM. `CCn1ccc2cc(C(=O)NCCc3cc(F)c(N4CC5CCC(C4)N5)cc3F)nnc21` [Example 4-1, N-[2-(4-[3,8-diazabicyclo[3.2.1]octan-3-yl]-2,5-difluorophenyl)ethyl]-7-ethyl-7H-pyrrolo[2,3-c]pyridazine-3-carboxamide] gave an IC50 of 1 to 50 nM. `CCn1cc(Cl)c2cc(C(=O)NCCc3cc(F)c(N4CC5CCC(C4)N5)cc3F)nnc21` [Example 4-4, N-(4-(3,8-diazabicyclo[3.2.1]octan-3-yl)-2,5-difluorophenethyl)-5-chloro-7-ethyl-7H-pyrrolo[2,3-c]pyridazine-3-carboxamide] gave an IC50 of 1 to 50 nM.
